In US5041451A, “Tetrahydroisoquinoline and tetrahydrothieno derivatives” (Dr. Lo. Zambelletti SpA, priority 1988, dated 1991) one finds ED50 data, which are given here for 5 compounds.

For assay [1], the system named is mice (tail-flick, heat source reaction time). The assay can be described thus: Mouse tail-flick test. Type of assay: in vivo, mouse (male Charles River). The conditions noted are these: sc, 0.5 h, s.c., 30 min after dosing, percent number of mice doubling the initial time, data given for free base form, read-out: ANALGESIA MOUSE TAIL-FLICK ED50. How it is done:
Mouse Tail-flick test (Modified from the procedure published by D Amour et al., J. Pharm. Exptl. Ther.72, 74/1941).
Male Charles River mice, average weight 26g, are used. Selection is carried out before beginning of experiments: only mice whose reaction time is less than 8 sec are used. They are randomly distributed into groups of 10 and dosed with compounds under test, with positive and negative controls being included.
Compounds under test are administered subcutaneously in isotonic saline in a volume of 20 ml. Kg^-1. 30 min later mice are placed again under heat source (Socrel apparatus) and reaction time is recorded.
The analgesic activity of the test compound is expressed as the percent number of mice doubling the initial time within a group. [formula]

In assay [2] the test system is mice (p-phenylquinone-induced abdominal writhing). The assay can be described thus: P-phenylquinone-induced abdominal writhing test in mice. Type of assay: in vivo, mouse (male Charles River, Swiss Strain). The conditions noted are these: Mus musculus, sc, 20 min; s.c., 20 min pretreatment; p-phenylquinone 2 mg/Kg i.p.; 8 min observation; data given for free base form; read-out: ANALGESIA MOUSE WRITHING ED50. On the procedure:
P-phenylquinone-induced Abdominal Writhinq Test in Mice
The methodology employed is based on that described by Sigmund et al, Proc. Soc. Exptl. Biol. 95, 729/1957, modified by Milne and Twomey, Agents and Actions, 10, 31/1980.
Male Charles River mice (Swiss Strain), 25-36 g body weight, are used. Animals are allowed food and water ad libitum and are randomized into groups of 10 prior to experimentation. Test compounds are dissolved in either distilled water or distilled water plus 0.1 M AMS, and administered by the subcutaneous route in a final volume of 10 ml/Kg. Control animals receive 10 ml/Kg of the appropriate vehicle alone. Following a pretreatment period of 20 min., mice are injected intraperitoneally with p-phenylquinone, 2 mg/Kg at 37° C. in a final volume of 10 mg/Kg. Next, the mice are placed, in a groups of 3, in a compartmented perspex box maintained at room temperature and are observed for a period of 8 min. During this period the number of abdominal writhing responses per animal are recorded where writhing consists of an intermittent contraction of the abdomen associated with hind leg extension.
The degree of antinociceptive protection afforded by the test compound is determined as the mean number of writhing responses observed in the treated group (T) expressed as a percentage of the mean number of writhing responses in the control group (C) according to the following formula:
[1-(T/C)]×100%=% graded protection.
A general note: In writhing tests, fewer writhes than in controls are read as antinociception.

In general, ED50 refers to the dose that gives a 50% effect, or the effect in half of the subjects.

Molecules are shown by their SMILES. Structures can show the parent of a compound that is named as a salt.

In the case of `O=C1CCCc2cc(CC(=O)N3CCc4sccc4C3CN3CCCCC3)ccc21` (single isomer, unassigned) [Example 5, (-)4-(piperidin-1-yl)methyl-5-(1-oxo-3,4-dihydro-(2H)-napht-6-yl)acetyl-4,5,6,7-tetrahydrothieno [3,2-c]pyridine L(+) tartrate], the ED50 is 0.045 mg/kg in assay [1] and 0.009 mg/kg in assay [2].

As for `O=C1CCCc2cc(CC(=O)N3CCc4ccccc4C3CN3CCCC3)ccc21` (stereo not shown) [Example 1, 1-(pyrrolidin-1-yl)methyl-2-(1-oxo-3,4-dihydro-(2H)-napht-6-Yl)acetyl-1,2,3,4-tetrahydroisoquinoline hydrochloride], the ED50 is 0.114 mg/kg in assay [1] and 0.036 mg/kg in assay [2].

With `O=C1CCCc2cc(CC(=O)N3CCc4ccccc4C3CN3CCCCC3)ccc21` (stereo not shown) [Example 2, 1-(piperidin-1-yl)methyl-2-(1-oxo-3,4-dihydro-(2H)-napht-6-yl)acetyl-1,2,3,4-tetrahydroisoquinoline hydrochloride], the ED50 in assay [1] was found to be 0.206 mg/kg; in assay [2], 0.038 mg/kg.

As for `O=C1CCCc2cc(CC(=O)N3CCc4sccc4C3CN3CCCC3)ccc21` (stereo not shown) [Example 3, 4-(pyrrolidin-1-yl)methyl-5-(1-oxo-3,4-dihydro-(2H)-napht-6-yl)acetyl-4,5,6,7-tetrahydrothieno [3,2-c] pyridine hydrochloride], the ED50 in assay [1] came out at 0.086 mg/kg; in assay [2] it was 0.023 mg/kg.

`O=C1CCCc2cc(CC(=O)N3CCc4sccc4C3CN3CCCCC3)ccc21` (stereo not shown) [Example 4, 4-(piperidin-1-yl)methyl-5-(1-oxo-3,4-dihydro-(2H)-napht-6-Yl)acetyl-4,5,6,7-tetrahydrothieno [3,2-c]pyridine hydrochloride hemihydrate]: the 50% effective dose (ED50) in assay [1] was found to be 0.174 mg/kg; in assay [2], 0.017 mg/kg.
